In paper PMC6287599, “2,6-Bis(2-Benzimidazolyl)Pyridine (BBP) Is a Potent and Selective Inhibitor of Small Conductance Calcium-Activated Potassium (SK) Channels” (Frontiers in Pharmacology, 2018):

Biological target: hSK2 (Homo sapiens, UniProt Q9H2S1)
Assay: Automated patch clamp (QPatch 16), whole cell, stable HEK293 cell line expressing hSK2
Format: cell-based
Conditions: HEK stable line, 400 nM free intracellular calcium, mean ± SEM, n = 8
Procedure: Three different stable HEK293 cell lines expressing hSK1, hSK2 or hSK3 (NeuroSearch A/S, Ballerup, Denmark) and a CHO stable cell line expressing hERG (University of Copenhagen, Copenhagen, Denmark) were used for automated patch clamp. These cells were cultivated and prepared as previously described (Skarsfeldt et al., [2016]).
Automated patch clamp (QPatch 16, Sophion, Denmark) on SK-expressing HEK293 cell lines was conducted as previously described (Simó-Vicens et al., [2017b]). Briefly, SK currents were elicited by voltage-ramps starting at −80 mV and finishing at +80 mV from a holding potential of 0 mV. Extracellular solution contained 0.1 mM CaCl2, 3 mM MgCl2, 154 mM KCl, 10 mM HEPES and 10 mM glucose with pH 7.4. Intracellular solution for SK experiments contained 8.106 mM CaCl2 (final free calcium concentration of 400 nM), 1.167 mM MgCl2, 10 mM EGTA, 154 mM KCl, 10 mM HEPES, 31.25/ 10 mM KOH/EGTA and 15 mM KOH with pH 7.2. Automated patch clamp on hERG-expressing CHO cell line was performed also as previously described (Skarsfeldt et al., [2016]).
Individual IC50 values were calculated for each cell with the built-in nonlinear fit log(inhibitor) vs. normalized response equation:
Where Y is the normalized response, from 100, corresponding to current recorded during saline perfusion, down to 0, corresponding to currents recorded in the presence of bicuculline methiodide 100 μM. […]

Compound c1cc(-c2nc3ccccc3[nH]2)nc(-c2nc3ccccc3[nH]2)c1 [BBP, 2,6-Bis(2-benzimidazolyl)pyridine] has an IC50 of 400 ± 100 nM.
